The values that follow come from ChEMBL document CHEMBL1132501, “Synthesis and anti-Helicobacter pylori activity of FR182024, a new cephem derivative” (1999).

Molecules are shown by their SMILES. ≈ marks a conversion by molar mass, not a printed value.

Format in all cases: functional
In experiment [1] the test system is Helicobacter pylori. The experiment is described as follows: The compound was evaluated in vitro for the minimum inhibitory concentration against Helicobacter pylori (13001).
Experiment [2] deals with Helicobacter pylori. The experiment is described as follows: The compound was evaluated in vitro for the minimum inhibitory concentration against Helicobacter pylori (16021).
Experiment [3] concerns Helicobacter pylori. The experiment is described as follows: The compound was evaluated in vitro for the minimum inhibitory concentration against Helicobacter pylori (9005).
Experiment [4] deals with Helicobacter pylori. The experiment is described as follows: The compound was evaluated in vitro for the minimum inhibitory concentration against Helicobacter pylori (FP1757).
In experiment [5] the test system is Mus musculus. The experiment is described as follows: The compound was evaluated in vivo for the therapeutic efficacy at 0.32 mg/kg in mouse infection model; 0/8.
Experiment [6] has as its system Mus musculus. The experiment is described as follows: The compound was evaluated in vivo for the therapeutic efficacy at 3.2 mg/kg in mouse infection model; 0/8.
For experiment [7], the system named is Mus musculus. The experiment is described as follows: The compound was evaluated in vivo for the therapeutic efficacy at 1.0 mg/kg in mouse infection model; 0/8.
The subject of experiment [8] is Mus musculus. The experiment is described as follows: The compound was evaluated in vivo for the therapeutic efficacy at 0.1 mg/kg in mouse infection model; 5/8.
In experiment [9] the test system is Mus musculus. The experiment is described as follows: The compound was evaluated in vivo for the therapeutic efficacy at 0.32 mg/kg in mouse infection model; 8/8.
Experiment [10] deals with Mus musculus. The experiment is described as follows: The compound was evaluated in vivo for the therapeutic efficacy at 0.1 mg/kg in mouse infection model; 0/8.
In experiment [11] the test system is Mus musculus. The experiment is described as follows: The compound was evaluated in vivo for the therapeutic efficacy at 0.32 mg/kg in mouse infection model; 1/8.
Experiment [12] deals with Mus musculus. The experiment is described as follows: The compound was evaluated in vivo for the therapeutic efficacy at 1.0 mg/kg in mouse infection model; 3/8.
In experiment [13] the test system is Mus musculus. The experiment is described as follows: The compound was evaluated in vivo for the therapeutic efficacy at 3.2 mg/kg in mouse infection model; 7/8.

`CC[C@H]1OC(=O)[C@H](C)[C@@H](O[C@H]2C[C@@](C)(OC)[C@@H](O)[C@H](C)O2)[C@H](C)[C@@H](O[C@@H]2O[C@H](C)C[C@H](N(C)C)[C@H]2O)[C@](C)(OC)C[C@@H](C)C(=O)[C@H](C)[C@@H](O)[C@]1(C)O` [CLARITHROMYCIN]: the MIC – broadly, the least concentration at which growth counts as inhibited – turned out to be 0.05 µg/mL (≈ 0.0668 µM) in experiment [1], 50 µg/mL (≈ 66.8 µM) in experiment [2], 0.2 µg/mL (≈ 0.267 µM) in [3] and 0.1 µg/mL (≈ 0.134 µM) in experiment [4]. The Therapeutic efficacy in experiment [5], in [6] and in experiment [7] was 0 each time.
`Cc1nnc(SC2=C(C(=O)O)N3C(=O)[C@@H](NC(=O)Cc4ccccc4)[C@H]3SC2)s1`: the MIC in experiment [1] came to 0.00078 µg/mL (≈ 0.00174 µM); in [2] it was 0.0016 µg/mL (≈ 0.00357 µM); in experiment [3], 0.00625 µg/mL (≈ 0.0139 µM); in [4], 0.00156 µg/mL (≈ 0.00348 µM). In addition, the values for the Therapeutic efficacy in [8] and in experiment [9] were 5 and 8, respectively.
For `CC1(C)S[C@@H]2[C@H](NC(=O)[C@H](N)c3ccc(O)cc3)C(=O)N2C1C(=O)O` (single isomer, unassigned) [AMOXICILLIN], the MIC in experiment [1] stood at 0.025 µg/mL (≈ 0.0684 µM); in experiment [2] it was 0.025 µg/mL (≈ 0.0684 µM); in [3], 0.05 µg/mL (≈ 0.137 µM); in experiment [4], 0.0125 µg/mL (≈ 0.0342 µM). Besides, the Therapeutic efficacy in experiment [10] was 0; in experiment [11], 1; in [12], 3; in [13] it was 7.
